# Measured values reported in US12643924B2, “Cardiac-specific targeting-peptide (CTP), compositions, and uses thereof” (University of Pittsburgh—Of the Commonwealth System of …, priority 2018, dated 2026).
# Where no end group is shown, it is not given here.
# Assays:
# H9C2 cells [1] = experiment: Fluorescence activated cell sorting of H9C2 cells after 30 min incubation with 10 uM peptide (median Cy5.5); type: cell-based, rat; details: for Corrected Median Cy5.5 / Raw Median Cy5.5: H9C2 cells, 30 min incubation, 10 uM peptide, single replicates; for Corrected Median Cy5.5: corrected for peptide fluorescence; for Average Correction: average of corrected median Cy5.5, H9C2 cells, FIG. 1C
# Procedure: (§1) Variants of SEQ ID NO: 1 in which every amino acid was systematically mutated to alanine were synthesized in the University of Pittsburgh Peptide Synthesis Facility. Each variant was conjugated to the Cyanine5.5 fluorescent dye (Cy5.5). The rat cardiomyocyte cell line H9C2 (ATCC, catalogue #: CRL-1446) was incubated for 30 minutes at 37° C. with Dimethyl sulfoxide (DMSO) as a control, or the alanine peptide variants. Cells were then washed 3 times with PBS, trypsinized and resuspended, stained for live/dead cells, and then FACS sorted for Cy5.5 positive cells.
# H9C2 cells [2] = experiment: Alanine scan: percentage of Cy5.5 positive H9C2 cells by FACS; type: cell-based, rat; details: percentage of Cy5.5 positive H9C2 cells normalized to non-mutated peptide (SEQ ID NO: 1); Cy5.5-conjugated peptides, 30 minutes at 37° C.
# Procedure: as §1
# The percentage of Cy5.5 positive H9C2 cells, normalized to the non-mutated peptide (SEQ ID NO: 1), for each peptide variant is summarized in Table 2 below.
sequence,measurement,setting,value
"APAHLSSQYSRT (also: Cy5.5 conjugate, site not given here) [W3A, alanine variant of CTP, Cy5.5 conjugated]",Corrected Median Cy5.5,H9C2 cells [1]; listed as W3A_001,5369.7
same,Corrected Median Cy5.5,H9C2 cells [1]; listed as W3A_002,5369.7
same,Corrected Median Cy5.5,H9C2 cells [1]; listed as W3A_003,5258.1
same,Raw Median Cy5.5,H9C2 cells [1]; listed as W3A_001,4862
same,Raw Median Cy5.5,H9C2 cells [1]; listed as W3A_002,4862
same,Raw Median Cy5.5,H9C2 cells [1]; listed as W3A_003,4761
same,Average Correction,H9C2 cells [1],5332.5
same,% transduction of H9C2 Cells,H9C2 cells [2],75.81%
"APWALSSQYSRT (also: Cy5.5 conjugate, site not given here) [H4A, alanine variant of CTP, Cy5.5 conjugated]",Corrected Median Cy5.5,H9C2 cells [1]; listed as H4A_001,7666.1
same,Corrected Median Cy5.5,H9C2 cells [1]; listed as H4A_002,8011.3
same,Corrected Median Cy5.5,H9C2 cells [1]; listed as H4A_003,6934.0
same,Raw Median Cy5.5,H9C2 cells [1]; listed as H4A_001,7173
same,Raw Median Cy5.5,H9C2 cells [1]; listed as H4A_002,7496
same,Raw Median Cy5.5,H9C2 cells [1]; listed as H4A_003,6488
same,Average Correction,H9C2 cells [1],7537.1
same,% transduction of H9C2 Cells,H9C2 cells [2],55.05%
"APWHASSQYSRT (also: Cy5.5 conjugate, site not given here) [L5A, alanine variant of CTP, Cy5.5 conjugated]",Corrected Median Cy5.5,H9C2 cells [1]; listed as L5A_001,5077.5
same,Corrected Median Cy5.5,H9C2 cells [1]; listed as L5A_002,5522.0
same,Corrected Median Cy5.5,H9C2 cells [1]; listed as L5A_003,5370.0
same,Raw Median Cy5.5,H9C2 cells [1]; listed as L5A_001,3107
same,Raw Median Cy5.5,H9C2 cells [1]; listed as L5A_002,3379
same,Raw Median Cy5.5,H9C2 cells [1]; listed as L5A_003,3286
same,Average Correction,H9C2 cells [1],5323.2
same,% transduction of H9C2 Cells,H9C2 cells [2],87.81%
"APWHLASQYSRT (also: Cy5.5 conjugate, site not given here) [S6A, alanine variant of CTP, Cy5.5 conjugated]",Corrected Median Cy5.5,H9C2 cells [1]; listed as S6A_001,17793.0
same,Corrected Median Cy5.5,H9C2 cells [1]; listed as S6A_002,18393.5
same,Corrected Median Cy5.5,H9C2 cells [1]; listed as S6A_003,20420.3
same,Raw Median Cy5.5,H9C2 cells [1]; listed as S6A_001,22342
same,Raw Median Cy5.5,H9C2 cells [1]; listed as S6A_002,23096
same,Raw Median Cy5.5,H9C2 cells [1]; listed as S6A_003,25641
same,Average Correction,H9C2 cells [1],18868.9
same,% transduction of H9C2 Cells,H9C2 cells [2],107.21%
"APWHLSAQYSRT (also: Cy5.5 conjugate, site not given here) [S7A, alanine variant of CTP, Cy5.5 conjugated]",Corrected Median Cy5.5,H9C2 cells [1]; listed as S7A_001,21208.1
same,Corrected Median Cy5.5,H9C2 cells [1]; listed as S7A_002,23475.6
same,Corrected Median Cy5.5,H9C2 cells [1]; listed as S7A_003,23755.1
same,Raw Median Cy5.5,H9C2 cells [1]; listed as S7A_001,20184
same,Raw Median Cy5.5,H9C2 cells [1]; listed as S7A_002,22342
same,Raw Median Cy5.5,H9C2 cells [1]; listed as S7A_003,22608
same,Average Correction,H9C2 cells [1],22813.0
same,% transduction of H9C2 Cells,H9C2 cells [2],54.32%
"APWHLSSAYSRT (also: Cy5.5 conjugate, site not given here) [Q8A, alanine variant of CTP, Cy5.5 conjugated]",Corrected Median Cy5.5,H9C2 cells [1]; listed as Q8A_001,9725.5
same,Corrected Median Cy5.5,H9C2 cells [1]; listed as Q8A_002,9339.0
same,Corrected Median Cy5.5,H9C2 cells [1]; listed as Q8A_003,9049.4
same,Raw Median Cy5.5,H9C2 cells [1]; listed as Q8A_001,10041
same,Raw Median Cy5.5,H9C2 cells [1]; listed as Q8A_002,9642
same,Raw Median Cy5.5,H9C2 cells [1]; listed as Q8A_003,9343
same,Average Correction,H9C2 cells [1],9371.3
same,% transduction of H9C2 Cells,H9C2 cells [2],67.35%
"APWHLSSQASRT (also: Cy5.5 conjugate, site not given here) [Y9A, alanine variant of CTP, Cy5.5 conjugated]",Corrected Median Cy5.5,H9C2 cells [1]; listed as Y9A_001,5365.7
same,Corrected Median Cy5.5,H9C2 cells [1]; listed as Y9A_002,5445.9
same,Corrected Median Cy5.5,H9C2 cells [1]; listed as Y9A_003,5586.0
same,Raw Median Cy5.5,H9C2 cells [1]; listed as Y9A_001,5018
same,Raw Median Cy5.5,H9C2 cells [1]; listed as Y9A_002,5093
same,Raw Median Cy5.5,H9C2 cells [1]; listed as Y9A_003,5224
same,Average Correction,H9C2 cells [1],5465.9
same,% transduction of H9C2 Cells,H9C2 cells [2],107%
"APWHLSSQYART (also: Cy5.5 conjugate, site not given here) [S10A, alanine variant of CTP, Cy5.5 conjugated]",Corrected Median Cy5.5,H9C2 cells [1]; listed as S10A_001,3707.6
same,Corrected Median Cy5.5,H9C2 cells [1]; listed as S10A_002,3658.1
same,Corrected Median Cy5.5,H9C2 cells [1]; listed as S10A_003,3959.6
same,Raw Median Cy5.5,H9C2 cells [1]; listed as S10A_001,1722
same,Raw Median Cy5.5,H9C2 cells [1]; listed as S10A_002,1699
same,Raw Median Cy5.5,H9C2 cells [1]; listed as S10A_003,1839
same,Average Correction,H9C2 cells [1],3775.1
same,% transduction of H9C2 Cells,H9C2 cells [2],30.61%
"APWHLSSQYSAT (also: Cy5.5 conjugate, site not given here) [R11A, alanine variant of CTP, Cy5.5 conjugated]",Corrected Median Cy5.5,H9C2 cells [1]; listed as R11A_001,10237.9
same,Corrected Median Cy5.5,H9C2 cells [1]; listed as R11A_002,10010.7
same,Corrected Median Cy5.5,H9C2 cells [1]; listed as R11A_003,10518.6
same,Raw Median Cy5.5,H9C2 cells [1]; listed as R11A_001,9555
same,Raw Median Cy5.5,H9C2 cells [1]; listed as R11A_002,9343
same,Raw Median Cy5.5,H9C2 cells [1]; listed as R11A_003,9817
same,Average Correction,H9C2 cells [1],10255.7
same,% transduction of H9C2 Cells,H9C2 cells [2],32.75%
"APWHLSSQYSRA (also: Cy5.5 conjugate, site not given here) [T12A, alanine variant of CTP, Cy5.5 conjugated]",Corrected Median Cy5.5,H9C2 cells [1]; listed as T12A_001,14307.2
same,Corrected Median Cy5.5,H9C2 cells [1]; listed as T12A_002,15682.3
same,Corrected Median Cy5.5,H9C2 cells [1]; listed as T12A_003,15498.6
same,Raw Median Cy5.5,H9C2 cells [1]; listed as T12A_001,18458
same,Raw Median Cy5.5,H9C2 cells [1]; listed as T12A_002,20232
same,Raw Median Cy5.5,H9C2 cells [1]; listed as T12A_003,19995
same,Average Correction,H9C2 cells [1],15162.7
same,% transduction of H9C2 Cells,H9C2 cells [2],90.33%
